target: T1, Acyl-CoA: Cholesterol Acyltransferase (ACAT) (Rattus norvegicus, UniProt Q7TQM4); test: Inhibition of Acyl-CoA: Cholesterol Acyltransferase (ACAT) in Hepatic Microsomes (In Vitro Assay); assay type: biochemical, rat (male Sprague Dawley); settings: 75 μM 14C-oleoyl-CoA, pH 7.4, 37° C., 10 min, read-out: ACAT Inhibitory Activity (In Vitro) (IC50)
T1 construct: centrifuged at 105,000×g for 1 hour to pellet the microsomes; from tissue; host or cells: liver microsomes of male Sprague Dawley rats
T1 sequence (Q7TQM4 1-524): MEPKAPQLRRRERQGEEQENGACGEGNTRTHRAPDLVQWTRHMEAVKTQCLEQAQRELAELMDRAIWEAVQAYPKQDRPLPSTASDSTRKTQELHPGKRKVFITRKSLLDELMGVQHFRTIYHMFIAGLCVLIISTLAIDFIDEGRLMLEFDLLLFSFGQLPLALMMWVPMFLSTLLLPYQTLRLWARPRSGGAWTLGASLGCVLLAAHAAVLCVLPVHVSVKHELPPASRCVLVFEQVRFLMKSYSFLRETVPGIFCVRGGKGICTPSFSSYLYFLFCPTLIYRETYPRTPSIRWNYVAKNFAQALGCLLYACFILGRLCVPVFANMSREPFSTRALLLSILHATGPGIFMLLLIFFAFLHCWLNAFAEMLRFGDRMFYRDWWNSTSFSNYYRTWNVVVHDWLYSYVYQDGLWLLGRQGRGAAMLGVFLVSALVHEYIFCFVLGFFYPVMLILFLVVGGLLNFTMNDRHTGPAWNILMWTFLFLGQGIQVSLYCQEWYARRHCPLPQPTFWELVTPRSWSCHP
Experimental: A. Assay of the Inhibition of Acyl-CoA: Cholesterol Acyltransferase (ACAT) in Hepatic Microsomes (In Vitro Assay)
The ability of the compounds to inhibit ACAT, the enzyme responsible for the intracellular synthesis of cholesteryl esters, was tested as follows. Male Sprague Dawley rats weighing 150-300 g, were fed rat chow ad libitum. The animals were fasted for twenty-four hours prior to being euthanized by CO2. The livers were perfused in situ with 50 ml of cold 0.25 sucrose, excised, and homogenized in three volumes of 0.1M phosphate buffer, pH 7.4, that contained 0.5 mM EDTA (ethylenediamine-tetraacetic acid), 1.0 mM glutathione, 0.25M sucrose and […] leupeptin. Microsomes were obtained by differential centrifugation; the supernatant from an initial spin at 15,000×g for 15 minutes was centrifuged at 105,000×g for 1 hour to pellet the microsomes. The microsomes were suspended in homogenization buffer, reisolated by centrifugation, and stored at -70° C. Microsomes were used within one month of preparation.
The control assay in a final volume of 200 μl consisted of 200 μg of microsomal protein, 75 μM ^14 C-oleoyl-CoA (10,000 dpm/nmol) in 0.1M phosphate, pH 7.4, that contained 1 mM glutathione. Compounds were added in 5 μl of DMSO (dimethyl sulfoxide) and additional controls were run with DMSO only. All components, except the oleoyl-CoA, were preincubated for 15 min. at 37° C. prior to the initiation of the reaction by the addition of oleoyl-CoA. The assay was terminated after 10 min by the addition of 4 ml of chloroform:methanol (2:1, v/v). 20,000 dpm of ^3 H-cholesteryl oleate and 10 μg of unlabeled cholesteryl oleate and oleic acid were added as an internal standard and carriers, respectively. After allowing 10 min. for lipid extraction, the samples were centrifuged at 1,000×g for 10 min to separate the solvent layers. The chloroform layer containing the neutral lipids was spotted onto a Baker SI250-Pa silica gel TLC plate and the plate developed using a hexane:diethyl ether:acetic acid (170:30:1) v/v/v) mobile phase. The lipids were visualized by their interaction with iodine vapor and the cholesteryl ester spot was scraped into a scintillation vial and counted. The specific activity of ACAT in the control incubation averaged 260 pmol/min/mg microsomal protein. The data obtained are expressed as the concentration at which ACAT activity is inhibited by 50% (IC50).

Row | Compound | IC50 [nM]
1 | CSc1cc(C)nc(SC)c1NC(=O)C(SCc1ccc(F)cc1)c1ccc(F)cc1 (stereo not drawn) [Example 153, N-[2,4-bis(methylthio)-6-methyl-3-pyridyl]-α-(4-fluoro-benzylthio)-4-fluoro-phenylacetamide] | < 1000
2 | COc1ccc(CSC(C(=O)Nc2c(SC)cc(C)nc2SC)c2ccc(F)cc2)cc1 (stereo not drawn) [Example 154, N-[2,4-bis(methylthio)-6-methyl-3-pyridyl]-α-(4-methoxy-benzylthio)-4-fluoro-phenylacetamide] | < 1000
3 | CSc1cc(C)nc(SC)c1NC(=O)C(Sc1ccc(F)cc1)c1ccc(F)cc1 (stereo not drawn) [Example 166, N-[2,4-bis(methylthio)-6-methyl-3-pyridyl]-α-(4-fluoro-phenylthio)-4-fluoro-phenylacetamide] | < 1000
4 | COc1ccc(SC(C(=O)Nc2c(SC)cc(C)nc2SC)c2ccc(F)cc2)cc1 (stereo not drawn) [Example 167, N-[2,4-bis(methylthio)-6-methyl-3-pyridyl]-α-(4-methoxy-phenylthio)-4-fluoro-phenylacetamide] | < 1000
5 | CCCCCCSC(C(=O)Nc1c(SC)cc(C)nc1SC)c1ccc(Cl)c(Cl)c1 (stereo not drawn) [Example 176, N-[2,4-bis(methylthio)-6-methyl-3-pyridyl]-α-hexylthio-3,4-dichloro-phenylacetamide] | < 1000
6 | CSc1cc(C)nc(SC)c1NC(=O)C(SCc1ccccc1)c1ccc(Cl)c(Cl)c1 (stereo not drawn) [Example 180, N-[2,4-bis(methylthio)-6-methyl-3-pyridyl]-α-benzylthio-3,4-dichloro-phenylacetamide] | < 1000
7 | CSc1cc(C)nc(SC)c1NC(=O)C(SCc1ccc(F)cc1)c1ccc(Cl)c(Cl)c1 (stereo not drawn) [Example 181, N-[2,4-bis(methylthio)-6-methyl-3-pyridyl]-α-(4-fluoro-benzylthio)-3,4-dichloro-phenylacetamide] | < 1000
8 | COc1ccc(CSC(C(=O)Nc2c(SC)cc(C)nc2SC)c2ccc(Cl)c(Cl)c2)cc1 (stereo not drawn) [Example 182, N-[2,4-bis(methylthio)-6-methyl-3-pyridyl]-α-(4-methoxy-benzylthio)-3,4-dichloro-phenylacetamide] | < 1000
9 | CCCCCCSC(C(=O)Nc1c(SC)cc(C)nc1SC)c1ccc(F)cc1F (stereo not drawn) [Example 204, N-[2,4-bis(methylthio)-6-methyl-3-pyridyl]-α-hexylthio-2,4-difluoro-phenylacetamide] | < 1000
10 | COc1ccc(CSC(C(=O)Nc2c(SC)cc(C)nc2SC)c2ccc(F)cc2F)cc1 (stereo not drawn) [Example 210, N-[2,4-bis(methylthio)-6-methyl-3-pyridyl]-α-(4-methoxy-benzylthio)-2,4-difluoro-phenylacetamide] | < 1000
11 | CCCCCCSC(C(=O)Nc1c(SC)cc(C)nc1SC)c1ccc(OC)c(OC)c1 (stereo not drawn) [Example 232, N-[2,4-bis(methylthio)-6-methyl-3-pyridyl]-α-hexylthio-3,4-dimethoxy-phenylacetamide] | < 1000
12 | COc1ccc(C(SCc2ccccc2)C(=O)Nc2c(SC)cc(C)nc2SC)cc1OC (stereo not drawn) [Example 236, N-[2,4-bis(methylthio)-6-methyl-3-pyridyl]-α-benzylthio-3,4-dimethoxy-phenylacetamide] | < 1000
13 | COc1ccc(C(SCc2ccc(F)cc2)C(=O)Nc2c(SC)cc(C)nc2SC)cc1OC (stereo not drawn) [Example 237, N-[2,4-bis(methylthio)-6-methyl-3-pyridyl]-α-(4-fluoro-benzylthio)-3,4-dimethoxy-phenylacetamide] | < 1000
14 | CCCCCCSC(C(=O)Nc1c(SC)cc(C)nc1SC)c1ccc(OCCCC)cc1 (stereo not drawn) [Example 260, N-[2,4-bis(methylthio)-6-methyl-3-pyridyl]-α-hexylthio-4-butoxy-phenylacetamide] | < 1000
15 | CCCCOc1ccc(C(SCc2ccccc2)C(=O)Nc2c(SC)cc(C)nc2SC)cc1 (stereo not drawn) [Example 264, N-[2,4-bis(methylthio)-6-methyl-3-pyridyl]-α-benzylthio-4-butoxy-phenylacetamide] | < 1000
16 | CCCCCCSC(C(=O)Nc1c(SC)cc(C)nc1SC)c1ccc(Oc2ccccc2)cc1 (stereo not drawn) [Example 288, N-[2,4-bis(methylthio)-6-methyl-3-pyridyl]-α-hexylthio-4-phenoxy-phenylacetamide] | < 1000
17 | CSc1cc(C)nc(SC)c1NC(=O)C(SCc1ccccc1)c1ccc(Oc2ccccc2)cc1 (stereo not drawn) [Example 292, N-[2,4-bis(methylthio)-6-methyl-3-pyridyl]-α-benzylthio-4-phenoxy-phenylacetamide] | < 1000
18 | CSc1cc(C)nc(SC)c1NC(=O)C(SCc1ccc(Cl)cc1)c1ccc(Oc2ccccc2)cc1 (stereo not drawn) [Example 295, N-[2,4-bis(methylthio)-6-methyl-3-pyridyl]-α-(4-chloro-benzylthio)-4-phenoxy-phenylacetamide] | < 1000
19 | CCCCCCSC(C(=O)Nc1c(SC)cc(C)nc1SC)c1cccc(Oc2ccccc2)c1 (stereo not drawn) [Example 316, N-[2,4-bis(methylthio)-6-methyl-3-pyridyl]-α-hexylthio-3-phenoxy-phenylacetamide] | < 1000
20 | CCCCCCSC(C(=O)Nc1c(SC)cc(C)nc1SC)c1cccc(Oc2ccc(Br)cc2)c1 (stereo not drawn) [Example 317, N-[2,4-bis(methylthio)-6-methyl-3-pyridyl]-α-hexylthio-3-(4'-bromophenoxy)-phenylacetamide] | < 1000
21 | CSc1cc(C)nc(SC)c1NC(=O)C(SCc1ccccc1)c1cccc(Oc2ccccc2)c1 (stereo not drawn) [Example 321, N-[2,4-bis(methylthio)-6-methyl-3-pyridyl]-α-benzylthio-3-phenoxy-phenylacetamide] | < 1000
22 | CSc1cc(C)nc(SC)c1NC(=O)C(SCc1ccccc1)c1cccc(Oc2ccc(Br)cc2)c1 (stereo not drawn) [Example 322, N-[2,4-bis(methylthio)-6-methyl-3-pyridyl]-α-benzylthio-3-(4'-bromophenoxy)-phenylacetamide] | < 1000
23 | CSc1cc(C)nc(SC)c1NC(=O)C(SCc1ccc(Cl)cc1)c1cccc(Oc2ccccc2)c1 (stereo not drawn) [Example 325, N-[2,4-bis(methylthio)-6-methyl-3-pyridyl]-α-(4-chloro-benzylthio)-3-phenoxy-phenylacetamide] | < 1000
24 | CSc1cc(C)nc(SC)c1NC(=O)C(SCc1ccc(Cl)cc1)c1cccc(Oc2ccc(Br)cc2)c1 (stereo not drawn) [Example 326, N-[2,4-bis(methylthio)-6-methyl-3-pyridyl]-α-(4-chloro-benzylthio)-3-(4'-bromophenoxy)-phenylacetamide] | < 1000
25 | CCCCCCSC(C(=O)Nc1c(SC)cc(C)nc1SC)c1ccc(C(F)(F)F)cc1 (stereo not drawn) [Example 375, N-[2,4-bis(methylthio)-6-methyl-3-pyridyl]-α-hexylthio-4-trifluoromethyl-phenylacetamide] | < 1000
26 | CSc1cc(C)nc(SC)c1NC(=O)C(SCc1ccccc1)c1ccc(C(F)(F)F)cc1 (stereo not drawn) [Example 379, N-[2,4-bis(methylthio)-6-methyl-3-pyridyl]-α-benzylthio-4-trifluoromethyl-phenylacetamide] | < 1000
27 | CSc1cc(C)nc(SC)c1NC(=O)C(SCc1ccc(F)cc1)c1ccc(C(F)(F)F)cc1 (stereo not drawn) [Example 380, N-[2,4-bis(methylthio)-6-methyl-3-pyridyl]-α-(4-fluoro-benzylthio)-4-trifluoromethyl-phenylacetamide] | < 1000
28 | COc1ccc(CSC(C(=O)Nc2c(SC)cc(C)nc2SC)c2ccc(C(F)(F)F)cc2)cc1 (stereo not drawn) [Example 381, N-[2,4-bis(methylthio)-6-methyl-3-pyridyl]-α-(4-methoxy-benzylthio)-4-trifluoromethyl-phenylacetamide] | < 1000

Reference: patent publication US5583147A, “Amides for the treatment of atherosclerosis” (The Dupont Merck Pharmaceutical Company, priority 1994, dated 1996)
